Laboratory results from PubChem BioAssay (NCI).
Several values for one entry are separate records, joined by “and”; a condition that tells them apart may be missing. Equal entries are not always repeated.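 48-hour exposure; five concentrations; linearly interpolated endpoints. GI50 marks 50% less growth. Definition used: TGI = concentration required for complete inhibition of growth.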

What was measured:
Assay in all cases: NCI tumour cell line growth inhibition, 48 h
[1] = system: MDA-N
[2] = system: DLD-1 colon
[3] = system: DMS 114 small cell lung
[4] = system: HOP-18 NSCLC
[5] = system: LXFL 529 NSCLC
[6] = system: M19-MEL melanoma
[7] = system: SNB-78 CNS
[8] = system: XF 498 CNS
[9] = system: P388 leukemia
[10] = system: P388/ADR leukemia
[11] = system: SN12K1 renal
[12] = system: RXF-631 renal

| SMILES | TGI [1] | TGI [2] [µM] | TGI [3] [µM] | TGI [4] [µM] | TGI [5] [µM] | TGI [6] [µM] | TGI [7] [µM] | TGI [8] [µM] | also measured |
| --- | --- | --- | --- | --- | --- | --- | --- | --- | --- |
| CC(=O)C1(N=Nc2ccc(S(N)(=O)=O)cc2)CCOC1=O (configuration not stated) | > 100 µM |  |  |  |  |  |  |  |  |
| N#C/C(=C/Sc1ccccc1)C(=O)O |  | > 100 | 35.8 | > 100 | > 100 | 74 | 59.5 | > 100 |  |
| COc1cc(O)c2c(c1)C(=O)c1cc3c(c(O)c1C2=O)C(OC1OC(C)C(O)C(O)C1OC)C(OC)C(C)(O)C3=O (configuration not stated) |  | 11.6 | 5.24 | 15.4 |  | 1.83 | 16.1 | 7.13 | TGI [9]: 25.2 µM; TGI [10]: 59.6 µM; TGI [11]: 7.14 µM |
| COc1ccc(OC(C(=O)O)c2ccccc2)c2c1CCCC2=O (configuration not stated) |  | > 100 | > 100 | > 100 | > 100 | > 100 | > 100 | > 100 | TGI [12]: > 100 µM |
| Cc1nn(-c2nc3ccccc3s2)c2c1C(=O)c1ccccc1-2 |  | > 100 | > 100 | > 100 | > 100 | > 100 | > 100 |  |  |
| CN(C)CCOC(c1ccccc1)c1ccccc1 | 50.1 µM and > 100 µM |  |  |  |  |  |  |  | GI50 [1]: 29.4 µM |
| O=c1c2ccccc2c2ccccc2c(=O)n1Cc1ccc2c(c1)OCO2 | 28.7 µM |  |  |  |  |  |  |  |  |
| Fc1cccc2c1cc1ccc3cccc4ccc2c1c34 |  | > 100 |  | > 100 | > 100 | > 100 | > 100 | > 100 |  |
| NC1=NCCN1CC(=O)O | > 10000 µM |  |  |  |  |  |  |  |  |
| NCCN1C(=O)C2C3c4ccccc4C(c4ccccc43)C2C1=O (configuration not stated) |  | > 100 | > 100 | > 100 | > 100 | > 100 | > 100 |  |  |
| CNC(=O)c1cccc2c(Nc3ccc(NS(C)(=O)=O)cc3OC)c3cccc(C)c3nc12 |  |  | 1.25 | 3.36 | 6.74 | 8.54 |  | 3.25 | TGI [9]: < 0.0384 µM; TGI [10]: 1.07 µM; TGI [11]: 1.61 µM |
| CCOc1ccccc1NC(=O)CCc1n[nH]c(=S)o1 |  | > 100 |  |  | > 100 | > 100 | > 100 | > 100 |  |
| CCOC(=O)/C(C#N)=C1/C(O)=C(C(=O)OC)C(C(=O)OC)=C1C(=O)OC |  | > 100 |  |  | > 100 | > 100 |  |  |  |
| O=S(O)CCCSSc1ccccc1 |  | > 100 | 67.6 | > 100 | > 100 | > 100 | > 100 | > 100 |  |
| COc1ccc(OC)c(-c2cc(=O)c3c(OC)c(OC)c(OC)c(OC)c3o2)c1 | > 100 µM |  |  |  |  |  |  |  |  |
| CCC[CH2][Sn]1([CH2]CCC)[O]C(=O)c2ccc(C)cc2[O]1 |  | 1.98 | 0.587 | 2.19 | 0.372 | 1.33 | 2.34 |  | GI50 [2]: 0.658 µM; GI50 [3]: 0.21 µM; GI50 [4]: 1.01 µM; GI50 [5]: 0.158 µM; GI50 [6]: 0.322 µM; GI50 [12]: 0.138 µM; TGI [12]: 0.32 µM; GI50 [7]: 0.526 µM |
| N#CS.N=C=S.N=C=S.[Cu+2].[NH2-].[NH2-].[NH2-].[NH2-].c1ccc2ncccc2c1 | > 100 µM |  |  |  |  |  |  |  | GI50 [1]: > 100 µM |
